In ChEMBL document CHEMBL1129517, “Pyrazolo[4,3-e]-1,2,4-triazolo[1,5-c]pyrimidine derivatives: potent and selective A(2A) adenosine antagonists” (J Med Chem, 1996) one finds ED50 and Ki data, which are given here for 14 compounds.

Assay [1] deals with Adenosine receptor A2a (Oryctolagus cuniculus).
Assay [2] deals with Adenosine receptor A2a (Rattus norvegicus, UniProt P30543).
Description: Inhibition of [3H]-CGS- 21680 binding to Adenosine A2A receptor in rat striatal homogenates.
Assay [3] addresses T1, Adenosine receptor A1 (Rattus norvegicus, UniProt P25099).
T1 sequence (P25099 whole entry): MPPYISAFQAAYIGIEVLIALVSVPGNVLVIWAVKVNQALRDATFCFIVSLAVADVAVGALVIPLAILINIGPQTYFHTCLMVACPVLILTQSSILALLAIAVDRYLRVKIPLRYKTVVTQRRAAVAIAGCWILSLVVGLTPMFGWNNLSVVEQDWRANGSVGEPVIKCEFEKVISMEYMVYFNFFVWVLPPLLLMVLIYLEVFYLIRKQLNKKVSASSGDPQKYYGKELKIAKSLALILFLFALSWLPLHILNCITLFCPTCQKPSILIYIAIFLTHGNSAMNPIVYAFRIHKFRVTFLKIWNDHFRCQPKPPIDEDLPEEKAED
Kind of assay: biochemical.
Description: Inhibition of [3H]-CHA binding to Adenosine A1 receptor in rat whole brain homogenates.

Adenosine receptor A2a, sequence (P30543 whole entry): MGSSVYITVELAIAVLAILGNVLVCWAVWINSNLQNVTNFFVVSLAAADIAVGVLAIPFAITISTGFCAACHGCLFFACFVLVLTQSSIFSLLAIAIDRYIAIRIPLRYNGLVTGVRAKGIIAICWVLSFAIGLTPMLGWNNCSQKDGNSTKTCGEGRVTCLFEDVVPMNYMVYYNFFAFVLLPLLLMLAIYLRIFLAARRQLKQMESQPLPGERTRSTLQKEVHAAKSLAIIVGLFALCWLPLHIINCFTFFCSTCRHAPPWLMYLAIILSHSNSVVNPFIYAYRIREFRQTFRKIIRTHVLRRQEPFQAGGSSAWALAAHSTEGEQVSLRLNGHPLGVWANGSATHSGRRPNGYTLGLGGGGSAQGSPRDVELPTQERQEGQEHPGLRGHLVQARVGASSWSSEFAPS

Turning to `Nc1nc2c(cnn2-c2ccccc2)c2nc(-c3ccco3)nn12`, the ED50 in assay [1] was above 1000 nM. The Ki (commonly a measure of affinity in units of concentration, obtained from inhibition or displacement) was 22.7 nM in assay [2] and 119 nM in assay [3].
In the case of `Nc1nc2c(cnn2Cc2ccc(F)cc2)c2nc(-c3ccco3)nn12`, the ED50 in assay [1] was determined as 10600 nM. Moreover, the Ki in assay [2] worked out at 12 nM; in assay [3] it was 189 nM.
On to `Nc1nc2c(cnn2CCCc2ccccc2)c2nc(-c3ccco3)nn12` [SCH-63390], for which the figures for the Ki in assay [2] and in assay [3] were 2.4 nM and 504 nM, respectively.
For `CC(C)Cc1ccc(CCn2ncc3c2nc(N)n2nc(-c4ccco4)nc32)cc1`, the ED50 in assay [1] is below 1000 nM. The Ki in assay [2] was 22 nM; in assay [3] it was above 3000 nM.
Taken in the same sequence, the figures for `Nc1nc2c(cnn2CCN2CCOCC2)c2nc(-c3ccco3)nn12` were 30 nM, 5.6 nM and 471 nM.
Turning to `Nc1nc2c(cnn2CCOCc2ccccc2)c2nc(-c3ccco3)nn12`, the Ki in assay [2] and in assay [3] was above 1000 nM in each case.
`Nc1nc2c(cnn2CCO)c2nc(-c3ccco3)nn12` registered a Ki in assay [2] of 77.7 nM.
On to `Nc1nc2c(cnn2CCCCc2ccccc2)c2nc(-c3ccco3)nn12`, for which the inhibitory constant (Ki) worked out at 21 nM in assay [2] and 2710 nM in assay [3].
In turn, `Nc1nc2nn(Cc3ccc(F)cc3)cc2c2nc(-c3ccco3)nn12` gave an ED50 in assay [1] of 4 nM.
As for `CCC(C)Cn1ncc2c1nc(N)n1nc(-c3ccco3)nc21` (centres undefined), the Ki worked out at 12 nM in assay [2] and 116 nM in assay [3].
The matching figures for `OCCn1ncc2c1nc(NCc1ccccc1)n1nc(-c3ccco3)nc21`: 166 nM and 330 nM.
The matching figures for `CC(C)(C)n1ncc2c1nc(N)n1nc(-c3ccco3)nc21`: 260 nM and 430 nM.
On to `CCCCn1ncc2c1nc(N)n1nc(-c3ccco3)nc21`, for which the ED50 in assay [1] worked out at 300 nM.
For `Nc1nc2n[nH]cc2c2nc(-c3ccco3)nn12`, the Ki was found to be 22.6 nM in assay [2] and 210 nM in assay [3].
